Assays:
Assay type in all cases: in vivo
Abutilon theophrasti [1] = experiment: Pre-emergence herbicidal action against ABUTH; settings: visual score after 3 weeks vs untreated controls
Summary of the method: (§1)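 Herbicidal effect was assessed 3 weeks after treatment by visual comparison with untreated controls, 100% denoting dead plants. Aqueous WP or EC preparations had been applied at 600 to 800 l/ha with 0.2% wetting agent to the soil covering freshly sown seeds.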

Alopecurus myosuroides [2] = experiment: Pre-emergence herbicidal action against ALOMY; settings: visual score after 3 weeks vs untreated controls
Summary of the method: as §1

Amaranthus retroflexus [3] = experiment: Pre-emergence herbicidal action against AMARE; settings: visual score after 3 weeks vs untreated controls
Summary of the method: as §1

Avena fatua [4] = experiment: Pre-emergence herbicidal action against AVEFA; settings: 80 g/ha; visual score after 3 weeks vs untreated controls
Summary of the method: as §1

Echinochloa crus-galli [5] = experiment: Pre-emergence herbicidal action against ECHCG; settings: 80 g/ha; visual score after 3 weeks vs untreated controls
Summary of the method: as §1

Matricaria inodora [6] = experiment: Pre-emergence herbicidal action against MATIN; settings: visual score after 3 weeks vs untreated controls
Summary of the method: as §1

Lolium rigidum = experiment: Pre-emergence herbicidal action against LOLRI; settings: 80 g/ha
From the text: (§2) Seeds of monocotyledonous and dicotyledonous weed plants and crop plants are laid out in sandy loam soil in wood-fiber pots and covered with soil. The compounds of the invention, formulated in the form of wettable powders (WP) or as emulsion concentrates (EC), are then applied to the surface of the covering soil in the form of an aqueous suspension or emulsion at a water application rate equivalent to 600 to 800 l/ha, with addition of 0.2% wetting agent. After the treatment, the pots are placed in a greenhouse and kept under good growth conditions for the trial plants. The damage to the test plants is scored visually after a test period of 3 weeks by comparison with untreated controls (herbicidal activity in percent (%): 100% activity=the plants have died, 0% activity=like control plants). […] The tables below illustrate, in an illustrative manner, the post-emergence herbicidal action of the compounds of the invention, the herbicidal activity being stated in percent.

Polygonum convolvulus = experiment: Pre-emergence herbicidal action against POLCO; settings: 80 g/ha
From the text: as §2

Setaria viridis [7] = experiment: Pre-emergence herbicidal action against SETVI; settings: 80 g/ha
Summary of the method: as §1

Veronica persica [8] = experiment: Pre-emergence herbicidal action against VERPE
Summary of the method: as §1

Viola tricolor [9] = experiment: Pre-emergence herbicidal action against VIOTR; settings: 80 g/ha
Summary of the method: as §1

Abutilon theophrasti [10] = experiment: Post-emergence herbicidal action against ABUTH
Summary of the method: (§3)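 Herbicidal effect was scored visually in percent after about 3 weeks in the greenhouse. Plants had been raised in sandy loam and treated post-emergence at the one-leaf stage with formulated compound at 600 to 800 l/ha water plus 0.2% wetting agent.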

Amaranthus retroflexus [11] = experiment: Post-emergence herbicidal action against AMARE; settings: visual assessment about 3 weeks after treatment
Summary of the method: as §3

Avena fatua [12] = experiment: Post-emergence herbicidal action against AVEFA; settings: 20 g/ha, visual assessment about 3 weeks after treatment
Protocol: (§4) Seeds of monocotyledonous and dicotyledonous weed and crop plants are laid out in sandy loam soil in wood-fiber pots, covered with soil and cultivated in a greenhouse under good growth conditions. 2 to 3 weeks after sowing, the test plants are treated at the one-leaf stage. The compounds of the invention, formulated in the form of wettable powders (WP) or as emulsion concentrates (EC), are then sprayed onto the green parts of the plants in the form of an aqueous suspension or emulsion at a water application rate equivalent to 600 to 800 l/ha, with addition of 0.2% wetting agent. After the test plants have been left to stand in the greenhouse under optimal growth conditions for about 3 weeks, the action of the preparations is assessed visually in comparison to untreated controls (herbicidal action in percent (%): 100% activity=the plants have died, 0% activity=like control plants). […] The tables below illustrate, in an illustrative manner, the post-emergence herbicidal action of the compounds of the invention, the herbicidal activity being stated in percent.

Echinochloa crus-galli [13] = experiment: Post-emergence herbicidal action against ECHCG; settings: visual assessment about 3 weeks after treatment
Summary of the method: as §3

Matricaria inodora [14] = experiment: Post-emergence herbicidal action against MATIN; settings: visual assessment about 3 weeks after treatment
Summary of the method: as §3

Setaria viridis [15] = experiment: Post-emergence herbicidal action against SETVI; settings: visual assessment about 3 weeks after treatment
Summary of the method: as §3

Veronica persica [16] = experiment: Post-emergence herbicidal action against VERPE; settings: visual assessment about 3 weeks after treatment
Summary of the method: as §3

Viola tricolor [17] = experiment: Post-emergence herbicidal action against VIOTR
Summary of the method: as §3

Digitaria sanguinalis [18] = experiment: Pre-emergence herbicidal action against DIGSA; settings: 80 g/ha
Summary of the method: as §1

Pharbitis purpurea = experiment: Post-emergence herbicidal action against PHBPU; settings: visual assessment about 3 weeks after treatment
Summary of the method: as §3

Digitaria sanguinalis [19] = experiment: Post-emergence herbicidal action against DIGSA; settings: 20 g/ha
Protocol: as §4

Alopecurus myosuroides [20] = experiment: Post-emergence herbicidal action against ALOMY
Summary of the method: as §3

Structure (SMILES)	Pre-emergence action against ABUTH (Abutilon theophrasti [1]; 20 g/ha)	Pre-emergence action against ABUTH (Abutilon theophrasti [1]; 80 g/ha)	Pre-emergence action against ALOMY (Alopecurus myosuroides [2]; 80 g/ha)	Pre-emergence action against AMARE (Amaranthus retroflexus [3]; 20 g/ha)	Pre-emergence action against AMARE (Amaranthus retroflexus [3]; 80 g/ha)	Pre-emergence action against AVEFA (Avena fatua [4])	Pre-emergence action against ECHCG (Echinochloa crus-galli [5])	Pre-emergence action against MATIN (Matricaria inodora [6]; 20 g/ha)	Pre-emergence action against MATIN (Matricaria inodora [6]; 80 g/ha)	Pre-emergence action against LOLRI (Lolium rigidum)	Pre-emergence action against POLCO (Polygonum convolvulus)	Pre-emergence action against SETVI (Setaria viridis [7])	Pre-emergence action against VERPE (Veronica persica [8]; 80 g/ha)	Pre-emergence action against VIOTR (Viola tricolor [9])	Post-emergence action against ABUTH (Abutilon theophrasti [10]; 20 g/ha)	Post-emergence action against AMARE in % (Amaranthus retroflexus [11]; 5 g/ha)	Post-emergence action against AMARE in % (Amaranthus retroflexus [11]; 20 g/ha)	Post-emergence action against MATIN in % (Matricaria inodora [14]; 20 g/ha)	Post-emergence action against SETVI in % (Setaria viridis [15]; 20 g/ha)	Post-emergence action against VIOTR in % (Viola tricolor [17]; 20 g/ha)	also measured
CCn1nnnc1NC(=O)c1ccc(C(F)F)c(C(=O)N(C)CC(F)F)c1Cl [Example 2-159]	100%	100%	100%	100%	100%	90%	90%	90%	100%	90%	90%	100%	80%	100%	90%	100%	100%	90%	90%	90%	Post-emergence action against ABUTH (Abutilon theophrasti [10]; 5 g/ha): 80%; Post-emergence action against AVEFA in % (Avena fatua [12]): 90%; Post-emergence action against ECHCG in % (Echinochloa crus-galli [13]; 20 g/ha): 90%; Post-emergence action against MATIN in % (Matricaria inodora [14]; 5 g/ha): 80%; Post-emergence action against VERPE in % (Veronica persica [16]; 20 g/ha): 80%; Post-emergence action against VIOTR in % (Viola tricolor [17]; 5 g/ha): 80%
CCN(C)C(=O)c1c(C(F)(F)F)ccc(C(=O)Nc2nnnn2C)c1C [Example 1-20, N^3-ethyl-N^3-2-dimethyl-N^1-(1-methyl-1H-tetrazol-5-yl)-4-(trifluoromethyl)isophthalamide]	–	100%	90%	80%	90%	–	–	–	100%	–	–	100%	80%	100%	90%	–	–	–	80%	90%	Pre-emergence action against DIGSA (Digitaria sanguinalis [18]): 90%; Post-emergence action against ABUTH (Abutilon theophrasti [10]; 5 g/ha): 80%; Post-emergence action against PHBPU in % (Pharbitis purpurea; 20 g/ha): 90%; Post-emergence action against DIGSA in % (Digitaria sanguinalis [19]): 80%
CCn1nnnc1NC(=O)c1ccc(C(F)F)c(C(=O)N(C)C2CC2)c1Cl [Example 2-156]	100%	100%	90%	100%	100%	90%	100%	100%	100%	80%	90%	100%	90%	100%	90%	100%	100%	90%	80%	90%	Pre-emergence action against ALOMY (Alopecurus myosuroides [2]; 20 g/ha): 90%; Post-emergence action against ALOMY (Alopecurus myosuroides [20]; 20 g/ha): 90%; Post-emergence action against AVEFA in % (Avena fatua [12]): 90%; Post-emergence action against ECHCG in % (Echinochloa crus-galli [13]; 20 g/ha): 90%; Post-emergence action against MATIN in % (Matricaria inodora [14]; 5 g/ha): 90%; Post-emergence action against PHBPU in % (Pharbitis purpurea; 5 g/ha): 80%; Post-emergence action against PHBPU in % (Pharbitis purpurea; 20 g/ha): 80%; Post-emergence action against VERPE in % (Veronica persica [16]; 20 g/ha): 80%; Post-emergence action against VIOTR in % (Viola tricolor [17]; 5 g/ha): 90%
CN(CC(F)F)C(=O)c1c(C(F)F)ccc(C(=O)Nc2nnnn2C)c1Cl [Example 1-159]	100%	100%	90%	100%	100%	80%	100%	90%	100%	80%	80%	100%	100%	100%	90%	100%	100%	90%	100%	90%	Pre-emergence action against ALOMY (Alopecurus myosuroides [2]; 20 g/ha): 90%; Pre-emergence action against VERPE (Veronica persica [8]; 20 g/ha): 90%; Post-emergence action against ABUTH (Abutilon theophrasti [10]; 5 g/ha): 90%; Post-emergence action against ALOMY (Alopecurus myosuroides [20]; 5 g/ha): 90%; Post-emergence action against ALOMY (Alopecurus myosuroides [20]; 20 g/ha): 90%; Post-emergence action against ECHCG in % (Echinochloa crus-galli [13]; 5 g/ha): 80%; Post-emergence action against ECHCG in % (Echinochloa crus-galli [13]; 20 g/ha): 90%; Post-emergence action against MATIN in % (Matricaria inodora [14]; 5 g/ha): 80%; Post-emergence action against PHBPU in % (Pharbitis purpurea; 20 g/ha): 90%; Post-emergence action against SETVI in % (Setaria viridis [15]; 5 g/ha): 100%; Post-emergence action against VERPE in % (Veronica persica [16]; 5 g/ha): 80%; Post-emergence action against VERPE in % (Veronica persica [16]; 20 g/ha): 90%; Post-emergence action against VIOTR in % (Viola tricolor [17]; 5 g/ha): 80%
Cc1c(C(=O)Nc2nnnn2C)ccc(C(F)(F)F)c1C(=O)N(C1CC1)C1CC1 [Example 1-40]	–	80%	–	100%	100%	–	80%	–	90%	–	–	–	–	100%	–	80%	80%	80%	–	–	Pre-emergence action against DIGSA (Digitaria sanguinalis [18]): 100%; Post-emergence action against DIGSA in % (Digitaria sanguinalis [19]): 90%

Reference: patent US12599136B2, “Substituted isophthalic acid diamides and their use as herbicides” (Bayer Aktiengesellschaft, priority 2020, dated 2026)
